In article PMC5025856, “A Novel Assay for Screening Inhibitors Targeting HIV Integrase LEDGF/p75 Interaction Based on Ni^2+ Coated Magnetic Agarose Beads” (Scientific Reports, 2016):
Like-named read-outs stand apart in the source and are kept apart here.

What was measured:
[1] = target: T1, PPI between HIV-1 IN CCD and LEDGF/p75 IBD (Homo sapiens, UniProt O75475); test: IN CCD-LEDGF/p75 IBD PPI assay based on Ni-NTA magnetic agarose beads; format: binding
T1 construct: The IN CCD protein used contained HIV IN residues 50–212 fused with an C-terminal His6-tag; a fusion of LEDGF/p75 residues 347–471 with the N-terminal GST-tag; made in house; host or cells: bacterial expression vectors pET28a (IN CCD) and pGEX-4T-1 (IBD)
Experimental: In the assay, GST–tagged LEDGF/p75 IBD (yellow) is mixed with His6-tagged IN CCD (green) at the desired concentrations. After incubation at room temperature, a double-tagged PPI complex with N-terminal GST-tag and C-terminal His6-tag is established between two protein partners. The PPI complex is captured by Ni^2+-coated magnetic beads (red) through His6-tag, followed by the addition of alkaline phosphatase conjugated anti-GST antibody (dark red). Therefore, the product could be measured by the alkaline phosphatase conjugated-coupled enzyme reaction (Fig. 1A).
The IN CCD-LEDGF/p75 IBD interaction assay was developed based on Ni-NTA Magnetic Agarose Beads (BEAVER Nano-technologies Co., Ltd. Suzhou, China). The assay was optimized for use in 96-well nonbinding surface microplates (Corning, New York, USA) in a final volume of 100 μl per well. Briefly, the assay works as follows. Compounds and proteins were diluted to 10× and 5× working solutions in the 1× assay buffer (25 mM Tris-HCl, pH 7.4, 150 mM NaCl, 1 mM MgCl2, 0.05% BSA[v/w]) respectively. Firstly, 10 μl compound dilution, 50 μl 1× buffer, 20 μl each of protein dilutions were pipetted into the wells. The plate was sealed and left to incubate at 200 rpm for 3 h at RT. Secondly, 10 μl of Ni-NTA Magnetic Agarose Beads were added followed by incubating at 900 rpm for 30 min at RT. Thirdly, the wells holding the mixture were placed on a magnetic concentrator, the supernatant was discarded, and the wells were washed 3 times with 200 μl wash buffer (50 mM sodium phosphate, pH 7.4, 150 mM NaCl, 0.005% tween-20[v/v], 20 mM imidazole). Fourthly, the wells were incubated with 100 μl of a 1:4000 solution of mouse anti-GST antibody (Sigma, USA) in antibody dilution buffer (50 mM Sodium Phosphate, pH 7.4, 150 mM NaCl, 0.005% Tween-20[v/v], 0.5%[w/v] BSA) at 900 rpm for 30 min at 37 °C, followed by washing three times. Fifthly, the wells were incubated with 100 μl of a 1:5000 solution of rabbit anti-mouse IgG alkaline phosphatase conjugated antibody (Sigma, USA) in antibody dilution buffer at 900 rpm for 30 min at 37 °C, followed by washing 3 times. Lastly, the color reaction was developed with 100 μl substrate buffer (10 mM diethanolamine, pH 9.8, 0.5 mM MgCl2, 8 mM p-NPP) for 30 min at 37 °C. The absorbance ([…]) of each well was measured in an Enspire multimode reader (PerkinElmer, USA). The reproducibility, signal stability, and robustness of this PPI assay were determined to ensure its compatible for HTS. Furthermore, IL23, an IN CCD-LEDGF/p75 IBD PPI inhibitor, was used to validate the assay efficiency.
In total, 1000 compounds selected at random from ‘The Spectrum Collection’ were purchased from National compound resource center. The library, which is composed of 2,320 compounds in 10 mM DMSO solution, lists primarily FDA-approved human therapeutic drugs, drug-like compounds, and natural products. Each compound was diluted in DMSO to reach a concentration of 300 μM, which was used as the 10× compound stock. In all screening campaigns, the negative control was based on the use of PPI binding mutant controls (single-point mutation) that would prevent the PPI from forming, and the positive control contained 10% (v/v) DMSO only. The negative and positive control with 8 replicates wells each located randomly among the 96 wells of each plate.
The z′ factor, signal-to-noise ratio (S/N), signal-to-background ratio (S/B), signal window (SW), and coefficient of variation (CV) were calculated and then compared with the minimum pass criteria (z′ >0.5, S/N>10, S/B > 3, SW >2, CV < 20%)[39][40][41][42]. The “hits” for PPI assays were classified as compounds that led to more than 60% disruption of a PPI complex. All HTS data were processed using Excel (Microsoft Corp.) and visualized using Prism 5.0 (GraphPad Software).

[2] = target: HIV-1 integrase catalytic core domain (IN CCD), residues 50-212, F185K, C-terminal His6-tag (HIV-1); test: ELISA; ELISA-based magnetic bead assay: GST-IBD and His6-CCD mixed in solution (25 mM Tris-HCl pH 7.4, 150 mM NaCl, 1 mM MgCl2, 0.05% BSA, 3 h RT), complex captured on Ni-NTA magnetic agarose beads by the His6-tag, detected with anti-GST antibody and alkaline phosphatase conjugate, absorbance read-out (A405); optimal conditions, ratio 1:1
[3] = target: HIV-1 IN CCD W131E (residues 50-212, F185K, W131E), C-terminal His6-tag (HIV-1); test: as above
[4] = target: LEDGF/p75 (Homo sapiens, UniProt O75475); test: Biolayer interferometry (BLI) binding to LEDGF/p75; conditions: ForteBIO Octet, 1:1 Langmuir global fit, read-out: dissociation constant Kd
Experimental: Biolayer interferometry (BLI) was used to study the kinetics of dexlansoprazole binding to LEDGF/p75 on a ForteBio Octet, according to the manufacturer’s instructions and published methods. Streptavidin biosensors tips were pre-wetted with buffer and immobilized with biotinylated protein. The biosensors were then transferred into wells containing dexlansoprazole in serial dilutions from 32 μM to 1 μM concentrations. Protein–ligand binding was measured by monitoring the changes in the interferometric profile of the wavelength of light passing through the sensor. Binding curves were analyzed using ForteBIO software, which performs a global fit according to the 1:1 Langmuir model to obtain the kinetic rate constants for each set of interaction conditions.

[5] = system: cancer xenograft models; design: method as in PMID 25093583; conditions: primary screen hit in cancer xenograft models; cited from earlier work
[6] = target: T2, His6-tagged GST protein (Schistosoma japonicum, UniProt P08515); test: Non-specificity counterscreen with His6-GST protein; conditions: dose-response, 10 nM His6-tagged GST protein
T2 construct: made in house; host or cells: bacterial expression vector pGEX-4T-1
Experimental: The false positive compound identified in this HTS may affect the assay by forming hydrogen bonds interaction with His6-tag of IN CCD or forming chelating complexes with Ni^2+-ion covering magnetic beads surface. […] Any compound that interfered with bead or with the His6-tag of double-tagged protein would result in a decreased signal in the counterscreen assay.
A counterscreen was carried out as described above, with the replacement of purified HIV-1 IN CCD and LEDGF/p75 IBD with 10 nM His6-tagged GST protein.

[7] = IN CCD-LEDGF/p75 IBD PPI, magnetic-beads assay, dose response, read-out: IC50
[8] = at 30 μM for each proton-pump inhibitor, PPI between LEDGF/p75 IBD and IN CCD, read-out: Inhibition (%)

Compound	IC50 [1, 7]	inhibition at 30 µM [1, 8]	also measured
COc1ccc2[nH]c([S+]([O-])Cc3ncc(C)c(OC)c3C)nc2n1 (centres unmarked) [Tenatoprazole]	> 30 µM	33.6%	
LEDGF/p75 integrase binding domain (LEDGF/p75 IBD), residues 347-471, N-terminal GST-tag (from UniProt O75475 347-471) (domain or fragment)			A405 signal [2]: 0.66 A405; A405 signal [3]: < 0.01 A405
COc1ccc2[nH]c([S+]([O-])Cc3ncc(C)c(OC)c3C)nc2c1 (centres unmarked) [Omeprazole]	> 30 µM	26.2%	
Cc1c(OCC(F)(F)F)ccnc1C[S@@+]([O-])c1nc2ccccc2[nH]1 [Dexlansoprazole]		75.2%	Kd [4]: 0.33 µM; IC50 [1]: 4.8 µM; inhibition at 30 µM ([1]; confirmatory screening, triplicate, 30 μM, read-out: inhibitory rate): 90.3%; inhibitory activity against IN CCD-LEDGF/p75 IBD interaction (in words) ([1]; qualitative statement): moderate inhibitory activity; anti-cancer activity [5]: poor; effect on the assay system (counterscreen) [6]: almost had no effect
LEDGF/p75 IBD D366N (residues 347-471), N-terminal GST-tag (from UniProt O75475 347-471) (domain or fragment)			A405 signal [2]: < 0.01 A405
COCCCOc1ccnc(C[S+]([O-])c2nc3ccccc3[nH]2)c1C (centres unmarked) [Rabeprazole]	> 30 µM	14.5%	
Cc1c(OCC(F)(F)F)ccnc1C[S+]([O-])c1nc2ccccc2[nH]1 (centres unmarked) [Lansoprazole]		-86.2%	
COc1ccnc(C[S+]([O-])c2nc3ccc(OC(F)F)cc3[nH]2)c1OC (centres unmarked) [Pantoprazole]		-23.9%	
COc1ccc2nc([S@@+]([O-])Cc3ncc(C)c(OC)c3C)[nH]c2c1 [Esomeprazole]	> 30 µM	22%	
